Experimental data from paper PMC3543460, “Structure-Activity Relationships of the Antimicrobial Peptide Arasin 1 — And Mode of Action Studies of the N-Terminal, Proline-Rich Region” (PLoS ONE, 2013).
Converted amounts (≈) assume the structure as drawn. Peptide text beside a SMILES is read from it. * marks the point of attachment. Acm = CC(=O)NC*

How the values were obtained:
Chitin-binding assay = conditions: 50 µg peptide with 40 mg chitin, washes with 0.1 M NaCl, 1 M NaCl, 10% acetic acid at 95°C; RP-HPLC of supernatants
Protocol: The ability of arasin 1(1–23) and arasin 1(20–37)-Acm to bind chitin was estimated using a modified protocol from Kawabata et al.. Briefly, 50 µg of peptide was incubated with 40 mg chitin in 800 µl buffer (50 mM Tris-HCl, 0.1 M NaCl, pH 8.0). Sequentially chitin was incubated at RT with 800 µl buffer containing 0.1 M NaCl and 1 M NaCl, respectively, and finally at 95°C with 10% acetic acid. All incubations were performed for 10 min, and chitin was collected by centrifugation at 1000×g for 5 min between each step. Supernatants were subjected to RP-HPLC using a Sunfire™ Prep C18 column (Waters; 100 Å 5 µm; 10×250 mm, MA, USA), with a linear gradient from 8 to 60% acetonitrile and a flow of 3 ml/min over 60 min. Absorbance was monitored at 220 nm and the resulting chromatograms were compared.

[1] = tested on: E. coli HB101 expressing eukaryotic luciferase lucGR; experiment: Membrane integrity assay I (D-luciferin influx, lucGR luciferase); type: cell-based, Escherichia coli
Excerpt: Escherichia coli HB101 was transformed with the plasmids pCSS962 and the helper plasmid pGB3 to allow for constitutive expression of the eukaryotic luciferase gene lucGR. The resulting strain was isogenic to the other E. coli strains used. The membrane permeabilization assay used is a modification of the protocol described by Virta et al.. The assay is based on E. coli cells, expressing a eukaryotic luciferase, depending on externally added D-luciferin as a substrate to emit light. At neutral pH the bacterial cytoplasmic membrane efficiently prevents uptake of external D-luciferin. However, disruption of the membrane by e.g. a membrane active AMP enhances D-luciferin influx and thereby induces bacterial light emission. Preparation of the cells and the assay plate was done as described for the viability assay above. However, chloramphenicol (30 µg/ml) was added in addition to ampicillin to the overnight culture, and D-luciferin sodium-salt (Biosynth, Staad, Switzerland) was added to the bacteria to final concentration of 1 mM. To allow shorter measurement intervals, only 8 wells were measured simultaneously. Arasin 1(1–23), PR-39(1–26) and cecropin P1 were tested for their membrane disruptive capacity.

B. cinerea 101 = type: cell-based, Botrytis cinerea; conditions: 101, 48 h
Protocol: (§1) Escherichia coli (ATCC 25922), E. coli HB101, Pseudomonas aeruginosa (ATCC 27853), Staphylococcus aureus (ATCC 9144) and Corynebacterium glutamicum (ATCC 13032) were grown at 37°C in Mueller Hinton agar (MH; Difco Laboratories, Detroit, USA). The yeasts Candida albicans (ATCC 10231) and Saccharomyces cerevisiae spp and the mold Botrytis cinerea 101 [33] were cultivated on potato dextrose agar supplemented with 2% glucose at room temperature (RT).
(§2) Fungal spores were dissolved in potato dextrose broth (Difco, Lawrence, KS, USA) and the cell concentration was determined and adjusted after counting in a Bürker chamber. Botrytis cinerea was filtered through a piece of cotton before counting. An aliquot of 50 µl of fungal spores (final concentration 2×10^5 spores/ml) were inoculated in 96-well Nunclon™ microtitre plates (Nagle Nunc Int. Roskilde, Denmark) along with 50 µl of synthetic peptide dissolved in Milli-Q water. Cultures were grown in a dark moist chamber without shaking at 20°C for S. cerevisiae and B. cinerea, and at 37°C for C. albicans. Growth inhibition was determined microscopically after 48 h of incubation. Inhibitory concentrations (IC50) was defined as the lowest concentration tested which yielded less than 50% visible growth compared to the growth control (fungi). Each peptide was tested in parallels in three individual runs for the antimicrobial assays.

E. coli HB101 [2] = experiment: Membrane integrity assay II (propidium iodide, flow cytometry); type: cell-based, Escherichia coli; conditions: 50% MH, 37°C, four independent experiments
Protocol: The effect of arasin 1(1–23) and cecropin P1 on membrane permeabilization was also studied by measuring the percentage of propidium iodide (PI) positive cells by flow cytometry. Samples of 1×10^6 cells/ml of E. coli HB101 were incubated in 50% MH with peptides at 37°C for different time span. After incubation, PI (Sigma Aldrich, Saint Louis, MO, USA) was added to the peptide-treated bacteria at a final concentration of 10 µg/ml. The cells were analyzed after 4 min of incubation with PI at 37°C in the flow cytometer as described.

S. aureus ATCC 9144 = type: cell-based, Staphylococcus aureus; conditions: ATCC 9144, 24 h
Protocol: as §1
(§3) Determination of the MIC against bacteria was performed by continuous monitoring of bacterial growth using a Bioscreen C microbiology reader (Labsystems Oy, Helsinki, Finland). The synthetic peptides were tested for antibacterial and antifungal activity at final concentrations (prepared from serial two-fold dilutions) ranging from 0.2 µM to 100 µM. The test was performed in 100-well flat-bottomed honeycomb plates, in which 50 µl peptide solution was incubated with 50 µl of a suspension of an actively growing culture of bacteria diluted to a starting concentration of 2.5×10^5 CFU/ml in Mueller Hinton Broth (MHB). The growth chamber was maintained at 37°C during the incubation period. The absorbance was measured by a turbidometric method with vertical light photometry and a wide band filter (420–580 nm). MIC was defined as the lowest concentration resulting in no visible bacterial growth after 24 h.

P. aeruginosa ATCC 27853 = type: cell-based, Pseudomonas aeruginosa; conditions: ATCC 27853, 24 h
Protocol: as §1, §3

C. albicans ATCC 10231 = type: cell-based, Candida albicans; conditions: ATCC 10231, 48 h
Protocol: as §1, §2

C. glutamicum ATCC 13032 = type: cell-based, Corynebacterium glutamicum; conditions: ATCC 13032, 24 h
Protocol: as §1, §3

S. cerevisiae spp. = type: cell-based, Saccharomyces cerevisiae; conditions: 48 h
Protocol: as §1, §2

E. coli HB101 [3] = experiment: Bactericidal assay (killing kinetics, colony counts); type: cell-based, Escherichia coli; conditions: 50% MHB, 1×10^6 CFU/ml, 37°C
Protocol: During incubation, aliquots were removed at different time intervals, washed in buffered high salt solution (10 mM Na-phosphate, 400 mM NaCl, 10 mM MgCl2), diluted and plated on MH plates. The number of bacterial CFU was determined after approximately 48 h of incubation at 37°C.

E. coli ATCC 25922 = type: cell-based, Escherichia coli; conditions: ATCC 25922, 24 h
Protocol: as §1, §3

[4] = tested on: E. coli HB101 constitutively expressing the luxCDABE operon; experiment: Cell viability assay (luxCDABE luminescence); type: cell-based, Escherichia coli; conditions: 50% MH, OD600 0.2, 30°C
Protocol: E.coli HB101 was transformed with the plasmid pCGLS-11 to enable constitutive bacterial luciferase expression from the luxCDABE operon. The resulting strain was used for cell viability assays as follows. An overnight culture in MH medium with ampicillin (100 µg/ml) was pelleted at 3000×g for 10 min and washed in MH medium before re-suspending the cells in 50% MH medium with a final OD600 of approximately 0.2. After 30 min of incubation at 30°C the cells were again adjusted to an OD600 of 0.2. An aliquot of 95 µl of bacterial solution was dispensed into each well of a black 96 well microtiter plate with transparent bottom (Falcon, Bredford, MA, USA). To achieve the indicated concentrations, a multi-channel pipette was used to add 5 µl of a two-fold dilution series of peptide solution in water to 8 wells simultaneously. The plate was loaded into a Perkin-Elmer Envision microtiter plate reader immediately after addition of the peptide (arasin 1(1–23), PR-39(1–26) or cecropin P1) and the measurement started 30 sec later because of handling events and 2 seconds of shaking inside the plate reader. Light production and growth (OD595) of the sensor bacteria was followed for 3 h under repeated shaking cycles before each measurement at 30°C.

E. coli = experiment: Antimicrobial activity at varied MH concentration; type: cell-based, Escherichia coli; conditions: results not shown
Excerpt: In contrast to the results from E. coli and P. aeruginosa, the C-terminal part of arasin 1(1–23) alone arasin 1(7–23) and 1(9–23) inhibits C. glutamicum and all the fungi. At the same time this antibacterial and antifungal activity is strictly dependent on a fragment between aa 13–23. This indicates a somewhat different mode of action for Gram- negative and Gram-positive bacteria, respectively. Likewise the mode of action against fungi is likely different. It is tempting to speculate that the N-terminal 5–10 amino acids might be involved in arasin 1(1–23) transfer across the outer membrane while the C-terminal part might bind the molecular target which is responsible for growth inhibition at low concentrations. The antimicrobial assays were all performed in MH or potato dextrose medium at a final concentration of 50% strength for bacteria and fungi, respectively. […] This means that the peptides are very sensitive to medium composition, and perhaps also salinity and/or ionic strength. […] In some studies, the use of diluted or poor medium instead of rich medium in MIC and mode of action studies is claimed to increase the sensitivity of the assays, [47]. The reasons of the medium-dependence have not been further evaluated, and 50% MH was used as the standard medium for the mode of action studies.

| Compound | binding to chitin (Chitin-binding assay) | light emission (D-luciferin influx) at concentrations above MIC ([1]; 1 mM D-luciferin) | light emission (D-luciferin influx) at concentration around MIC ([1]; compared with cecropin P1 treatment, 1 mM D-luciferin) | time at which permeabilization peaked ([1]; high concentrations of peptide) | IC50 (B. cinerea 101) [µM] | PI-positive (permeabilized) cells (E. coli HB101 [2]; peptide at 5×MIC (20 µM), 1×10^6 cells/ml) [%] | PI-positive (permeabilized) cells (E. coli HB101 [2]; peptide at 10×MIC (40 µM), after 15 min of treatment) | PI-positive (permeabilized) cells (E. coli HB101 [2]; peptide at MIC (4 µM), 1×10^6 cells/ml, background subtracted) [%] | MIC S. aureus ATCC 9144 (S. aureus ATCC 9144) [µM] | MIC P. aeruginosa ATCC 27853 (P. aeruginosa ATCC 27853) [µM] | IC50 (C. albicans ATCC 10231) [µM] | MIC C. glutamicum ATCC 13032 (C. glutamicum ATCC 13032) [µM] | IC50 (S. cerevisiae spp.) [µM] | effect on viable cell count at MIC (E. coli HB101 [3]; 4 µM (MIC), up to 4 h) | reduction of viable E. coli cells (E. coli HB101 [3]; 20 µM (5×MIC), after 30 min) [log] | MIC E. coli ATCC 25922 (E. coli ATCC 25922) [µM] | luminescence compared to untreated bacteria ([4]; after 10 min, at 10-fold MIC) | luminescence compared to untreated bacteria ([4]; at MIC values (5 µM)) | change of antimicrobial activity against E. coli by varying the MH concentration (E. coli) |
| --- | --- | --- | --- | --- | --- | --- | --- | --- | --- | --- | --- | --- | --- | --- | --- | --- | --- | --- | --- |
| CC[C@H](C)[C@H](NC(=O)[C@@H]1CCCN1C(=O)[C@H](CCCCN)NC(=O)[C@@H]1CCCN1C(=O)[C@H](CCCNC(=N)N)NC(=O)CNC(=O)[C@@H]1CCCN1C(=O)[C@H](Cc1ccccc1)NC(=O)[C@@H]1CCCN1C(=O)[C@H](CCCNC(=N)N)NC(=O)[C@@H]1CCCN1C(=O)[C@H](CCCNC(=N)N)NC(=O)CNC(=O)[C@@H]1CCCN1C(=O)[C@H](CO)NC(=O)[C@@H]1CCCN1C(=O)[C@H](Cc1c[nH]c2ccccc12)NC(=O)[C@H](CCCNC(=N)N)NC(=O)[C@@H](N)CO)C(=O)N[C@@H](Cc1ccccc1)C(=O)N[C@@H](CCCNC(=N)N)C(=O)N1CCC[C@H]1C(=O)N[C@@H](CCCNC(=N)N)C(=O)O [Arasin 1(1–23)] (H-SRWPSPGRPRPFPGRPKPIFRPR-OH; N-terminus and C-terminus assumed) | strong binding of the peptide to chitin | doubling of light emission | Minimal amounts of light | approximately 10 min | 12.5 | 30 | approximately 75% | ~10 | >100 | 12.5 (≈ 34.3 µg/mL) | 12.5 | 0.8 (≈ 2.19 µg/mL) | 12.5 | inhibition of bacterial growth without decreasing the number of viable cells | 1 | 6.3 (≈ 17.3 µg/mL) | more than 60% | more than 80% |  |
| CC(=O)NCSC[C@H](NC(=O)[C@H](CC(N)=O)NC(=O)[C@H](CSCNC(C)=O)NC(=O)[C@@H]1CCCN1C(=O)[C@H](CCCNC(=N)N)NC(=O)[C@@H]1CCCN1C(=O)[C@H](CCCNC(=N)N)NC(=O)[C@@H](N)Cc1ccccc1)C(=O)N[C@@H](Cc1ccc(O)cc1)C(=O)N[C@@H](C)C(=O)N1CCC[C@H]1C(=O)N1CCC[C@H]1C(=O)N[C@@H](CSCNC(C)=O)C(=O)N1CCC[C@H]1C(=O)N[C@@H](CSCNC(C)=O)C(=O)N[C@@H](CC(=O)O)C(=O)N[C@@H](CCCNC(=N)N)C(=O)N[C@@H](Cc1c[nH]c2ccccc12)C(=O)O [Arasin 1(20–37)-Acm] (H-FRPRPC(Acm)NC(Acm)YAPPC(Acm)PC(Acm)DRW-OH; N-terminus and C-terminus assumed) | did not bind tightly to chitin |  |  |  | > 100 |  |  |  | >100 | >100 | > 100 | >100 | > 100 |  |  | >100 |  |  |  |
| Bac7(1–16): fragment of the mammalian proline-rich antimicrobial peptide Bac7 (RRIRPRPPRLPRPRPR; Bactenecin 7; UniProt P19661 131-146, looked up, fragment) |  |  |  |  |  |  |  |  |  |  |  |  |  |  |  |  |  |  | did not change the antimicrobial activity |
